Data published in patent publication US20240269106A1, “SMALL MOLECULE MODULATOR TARGETING A RARE HISTONE MODIFICATION REGULATING ADIPOGENESIS AND PHARMACEUTICAL FORMULATION THEREOF” (COUNCIL OF SCIENTIFIC AND INDUSTRIAL RESEARCH AN INDIAN …, priority 2021, published 2024).

Key:
[1] = test system: genes associated with adipogenesis; assay: RT-PCR of adipogenesis related genes in 3T3L1; assay type: cell-based; details: 3T3L1, RT-PCR
Protocol: Total RNA was isolated from the treated 3T3L1 cells by phenol-chloroform method. The isolated RNA samples were treated with 2 units/μL DNase I to remove any residual DNA followed by overnight ethanol precipitation at −80° C. RNA integrity was checked in 1% agarose gel. 2 μg RNA was used for cDNA synthesis using oligo dT primers. RT-PCR was done using primers of adipogenesis related genes followed by detection with SYBR Green.
RT-PCR analysis was performed to show downregulation of genes associated with adipogenesis by compound of Formula I (FIG. 5). Error bars denote mean+/−SD of three biological replicates, one-way ANOVA with Dunnett's multiple comparison; * P<0.05, ** P<0.01, *** P<0.001, ns: not significant.

[2] = test system: C57BL/6J mice maintained on high fat diet; assay: Standardization of dosage and administration mode, intraperitoneal, high fat diet mice; assay type: in vivo
Protocol: Male C57BL/6J mice (8 weeks old) bred in house were obtained and acclimatized for 1 week prior to experiments. Mice were maintained on a 12-hour light/dark cycle at 22+/−3° C. and a relative humidity of 55% and given ad libitum access to food and water. The age-matched C57BL/6J mice were maintained on a standard laboratory chow diet or high fat diet (60 kcal % fat) and water. Two groups were intraperitoneally injected with compound x at two different doses (20 mg/Kg bw and 50 mg/kg bw) twice every week. A third group was injected with equivalent volume of DMSO (for 50 mg/kg bw) as vehicle control. Body weight and food intake was measured twice every week.

[3] = test system: C57BL/6J mice maintained on high fat diet; assay: Weight gain of mice maintained on high fat diet, compound mixed with diet; assay type: in vivo; details: 50 mg/kg bw mixed with high fat diet
Protocol: Male C57BL/6J mice (8 weeks old) were obtained and acclimatized for 1 week prior to experiments. Mice were maintained on a 12-hour light/dark cycle at 22+/−3° C. and a relative humidity of 55% and given ad libitum access to food and water. The age-matched C57BL/6J mice were maintained on a standard laboratory chow diet or high fat diet (60 kcal % fat) with or without compound of Formula I (50 mg/kg body weight) and water. Body weight and food intake was measured twice every week.
Trend of weight gaining after 16 weeks of C57BL6/J mice maintained on normal chow diet, high fat diet and high fat diet mixed with compound of Formula I was plotted (FIG. 9) (panel i); n=4 in each group:one-way ANOVA with Dunnett's multiple comparison; * P<0.05, ** P<0.01, *** P<0.001, ns: not significant. Representative images of dissected bodies showing fat accumulation (panel ii) and epididymal fat pads (panel iii) of the mice from three groups. Representative images of morphology of adipose tissue (iv) and liver (v) from the mice of the three groups, as studied by hematoxylin and eosin staining.

[4] = Detection of compound in mice liver by Q-TOF LC/MS; assay type: in vivo; details: LC-ESI-MS of liver metabolites
Protocol: The liver samples of mice treated with compound I were homogenized in a solution consisting of 50% methanol and 50% water and then snap frozen in liquid nitrogen followed by lyophilization. Profiling of intracellular metabolites was performed on an agilent 1290 Infinity LC system coupled to Agilent 6545 Accurate Mass Quadrupole Time of Flight (QTOF) with Agilent Jet Stream Thermal Gradient Technology. The UPLC system was assembled with a Diode array detector (DAD) and autosampler. The Chromatographic separation was achieved on Agilent ZORBAX SB-C18 column (2.1×100 mm, 1.8 μm) as stationary phase. […]
The ESI spectra of pure solution of compound of Formula I was taken as reference (FIG. 14A). When LC-ESI-MS analysis of metabolites of compound treated mice, liver was performed, the corresponding protonated molecular ion species was detected in the ESI spectra (FIG. 14B).

For `COc1ccc(C(=O)C2=C3OC(C)(C)[C@@H](CC=C(C)C)C[C@@]34C[C@@H](CC=C(C)C)C(C)(C)[C@@](CC=C(C)C)(C2=O)C4=O)cc1OC` [Compound X], the “expression of genes associated with adipogenesis” value [1] was “downregulation”, the weight gain ([2]; 20 mg/kg bw intraperitoneal twice every week) was “not sufficient for arresting weight gain” and the body weight ([2]; 50 mg/kg bw intraperitoneal twice every week, DMSO vehicle gave almost similar arrest) was “did have an attenuating effect”. The adipose tissue hypertrophy [3] was “less hypertrophy”, the liver lipid accumulation [3] was “less lipid accumulation” and the weight gain ([3]; 16 weeks) was “prevented weight gain”. For the same compound, the “detection in mice liver (bioavailability)” value [4] was “detected in its intact form”.
